Measurements published in ChEMBL document CHEMBL1201862, “PubChem BioAssay data set” (2004).
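Compound exposure: 48 hours, 5 concentrations, 96-well plates. Abbreviation: GI50, concentration required for 50% inhibition of growth.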 The source made the active and inactive calls. No stated cut-off is given here; in the data, active = GI50 up to about 1.1 µM and inactive = higher.

Key:
Assay in all cases: growth of human tumour cells (NCI), 48 h
A549 = tested on: A549
ACHN = tested on: ACHN
CAKI-1 = tested on: CAKI-1
CCRF-CEM = tested on: CCRF-CEM
DLD-1 = tested on: DLD-1
EKVX = tested on: EKVX
HL-60 = tested on: HL-60
OVCAR-3 = tested on: OVCAR-3
OVCAR-5 = tested on: OVCAR-5
OVCAR-8 = tested on: OVCAR-8
SF-268 = tested on: SF-268
SK-MEL-2 = tested on: SK-MEL-2
SNB-19 = tested on: SNB-19
SR = tested on: SR
SW-620 = tested on: SW-620
UACC-257 = tested on: UACC-257
Hs-578T = tested on: Hs-578T
MDA-MB-435 = tested on: MDA-MB-435
NCI/ADR-RES = tested on: NCI/ADR-RES
UO-31 = tested on: UO-31

Structure (SMILES)	GI50 (A549)	GI50 (ACHN)	GI50 (CAKI-1)	GI50 (CCRF-CEM)	GI50 (DLD-1)	GI50 (EKVX)	GI50 (HL-60)	GI50 (OVCAR-3)	GI50 (OVCAR-5)	GI50 (OVCAR-8)	GI50 (SF-268)	GI50 (SK-MEL-2)	GI50 (SNB-19)	GI50 (SR)	GI50 (SW-620)	GI50 (UACC-257)	GI50 (Hs-578T)	GI50 (MDA-MB-435)	GI50 (NCI/ADR-RES)	GI50 (UO-31)
C/C=C1\CN2CCc3c([nH]c4ccccc34)C2CC1C(=O)OC (configuration not stated)	> 322 µM (inactive)	> 322 µM (inactive)	> 322 µM (inactive)	> 322 µM (inactive)	> 322 µM (inactive)	> 322 µM (inactive)	> 32.2 µM (inactive)	> 322 µM (inactive)	> 322 µM (inactive)	> 322 µM (inactive)	> 322 µM (inactive)	> 322 µM (inactive)	> 322 µM (inactive)	> 322 µM (inactive)	> 322 µM (inactive)	> 322 µM (inactive)	–	–	–	–
CC1(C)OC(C[C@]2(C#N)C[C@H](CCl)OC(C)(C)O2)C[C@@H](C[C@]2(C#N)C[C@H](CCl)OC(C)(C)O2)O1 (some centres not stated)	> 100 µM (inactive)	> 100 µM (inactive)	> 100 µM (inactive)	> 100 µM (inactive)	> 100 µM (inactive)	> 100 µM (inactive)	> 100 µM (inactive)	> 100 µM (inactive)	> 100 µM (inactive)	> 100 µM (inactive)	> 100 µM (inactive)	> 100 µM (inactive)	> 100 µM (inactive)	20 µM (inactive)	> 100 µM (inactive)	17.3 µM (inactive)	–	–	–	–
C=C1C(=O)C23CC1CCC2C12CO[C@@]3(O)[C@@H](O)C1C(C)(C)C=CC2=O (some centres not stated)	2.03 µM (inactive)	0.774 µM (active)	2.44 µM (inactive)	0.313 µM (active)	0.721 µM (active)	5.26 µM (inactive)	0.143 µM (active)	1.11 µM (active)	4.76 µM (inactive)	0.16 µM (active)	1.65 µM (inactive)	0.925 µM (active)	1.41 µM (inactive)	0.186 µM (active)	2.93 µM (inactive)	0.684 µM (active)	31.6 µM (inactive)	3.78 µM (inactive)	9.31 µM (inactive)	1.73 µM (inactive)
COC(=O)CC[C@@H](NC(=O)C(C)NC(=O)COC1C(O)C(COC(=O)CCCCCCCCCCNC(=O)c2ccc([N+](=O)[O-])c3[nH]c4cc(Br)ccc4c(=O)c23)OC(OCc2ccccc2)C1NC(C)=O)C(N)=O (some centres not stated)	> 100 µM (inactive)	> 100 µM (inactive)	> 100 µM (inactive)	> 100 µM (inactive)	35.4 µM (inactive)	17.3 µM (inactive)	23 µM (inactive)	25.7 µM (inactive)	37.3 µM (inactive)	> 100 µM (inactive)	57.4 µM (inactive)	95.1 µM (inactive)	94 µM (inactive)	42.6 µM (inactive)	> 100 µM (inactive)	> 100 µM (inactive)	–	–	–	> 100 µM (inactive)
CCC1(OC(C)=O)C(=O)OCc2c1cc1n(c2=O)Cc2cc3ccccc3nc2-1 (configuration not stated)	1.16 µM (inactive)	0.455 µM (active)	1.07 µM (active)	0.163 µM (active)	> 66.4 µM (inactive)	12.8 µM (inactive)	0.421 µM (active)	10.7 µM (inactive)	2.37 µM (inactive)	2.45 µM (inactive)	0.528 µM (active)	> 80 µM (inactive)	0.962 µM (active)	0.276 µM (active)	5.83 µM (inactive)	4.45 µM (inactive)	–	–	–	1 µM (active)
C=C1CC2C(=O)N(c3ccccc3)C(=O)C2CC1n1[nH]c(=O)n(Cc2ccccc2)c1=O (configuration not stated)	> 100 µM (inactive)	> 100 µM (inactive)	> 100 µM (inactive)	> 100 µM (inactive)	> 100 µM (inactive)	> 100 µM (inactive)	> 100 µM (inactive)	> 100 µM (inactive)	> 100 µM (inactive)	> 100 µM (inactive)	> 100 µM (inactive)	> 100 µM (inactive)	> 100 µM (inactive)	> 100 µM (inactive)	> 100 µM (inactive)	> 100 µM (inactive)	–	–	–	> 100 µM (inactive)
O=c1/c(=C/c2ccco2)sc2nc3ccccc3n12	> 10 µM (inactive)	> 10 µM (inactive)	> 10 µM (inactive)	> 10 µM (inactive)	> 10 µM (inactive)	59.2 µM (inactive)	> 10 µM (inactive)	> 10 µM (inactive)	> 10 µM (inactive)	> 10 µM (inactive)	> 10 µM (inactive)	> 10 µM (inactive)	> 10 µM (inactive)	> 10 µM (inactive)	> 10 µM (inactive)	> 10 µM (inactive)	–	–	–	> 10 µM (inactive)
O=C1OCCC1C(O)C1c2ccccc2-c2ccccc21 (configuration not stated)	> 100 µM (inactive)	> 100 µM (inactive)	> 100 µM (inactive)	> 100 µM (inactive)	> 100 µM (inactive)	> 100 µM (inactive)	> 100 µM (inactive)	> 100 µM (inactive)	> 100 µM (inactive)	> 100 µM (inactive)	> 100 µM (inactive)	> 100 µM (inactive)	> 100 µM (inactive)	> 100 µM (inactive)	> 100 µM (inactive)	> 100 µM (inactive)	–	–	–	> 100 µM (inactive)
CCCCCCc1cc2c(C)c(C)c(=O)oc2cc1OCCCOc1cc2oc(=O)c(C)c(C)c2cc1CCCCCC	> 100 µM (inactive)	–	> 100 µM (inactive)	> 100 µM (inactive)	> 100 µM (inactive)	> 100 µM (inactive)	> 100 µM (inactive)	> 100 µM (inactive)	> 100 µM (inactive)	> 100 µM (inactive)	> 100 µM (inactive)	> 100 µM (inactive)	> 100 µM (inactive)	> 100 µM (inactive)	> 100 µM (inactive)	> 100 µM (inactive)	–	–	–	> 100 µM (inactive)
Cc1[nH]c(=O)[nH]c(=O)c1N(CCF)CCCl [FLUORODOPAN]	265 µM (inactive)	190 µM (inactive)	181 µM (inactive)	57.4 µM (inactive)	384 µM (inactive)	–	70.8 µM (inactive)	442 µM (inactive)	483 µM (inactive)	–	290 µM (inactive)	432 µM (inactive)	316 µM (inactive)	79.6 µM (inactive)	–	443 µM (inactive)	635 µM (inactive)	419 µM (inactive)	240 µM (inactive)	–
Cc1ccc(S(=O)(=O)N/N=C(\c2nc3ccc([N+](=O)[O-])cc3nc2O)C(O)c2ccccc2Cl)cc1 (configuration not stated)	> 100 µM (inactive)	> 100 µM (inactive)	> 100 µM (inactive)	17.5 µM (inactive)	> 100 µM (inactive)	> 100 µM (inactive)	27.5 µM (inactive)	> 100 µM (inactive)	> 100 µM (inactive)	> 100 µM (inactive)	> 100 µM (inactive)	> 100 µM (inactive)	> 100 µM (inactive)	> 100 µM (inactive)	> 100 µM (inactive)	> 100 µM (inactive)	–	–	–	> 100 µM (inactive)
CC#CC1/C(=C\C(=O)OC)CCCC1O (configuration not stated)	> 100 µM (inactive)	> 100 µM (inactive)	> 100 µM (inactive)	> 100 µM (inactive)	> 100 µM (inactive)	> 100 µM (inactive)	> 100 µM (inactive)	> 100 µM (inactive)	> 100 µM (inactive)	> 100 µM (inactive)	> 100 µM (inactive)	> 100 µM (inactive)	> 100 µM (inactive)	> 100 µM (inactive)	> 100 µM (inactive)	> 100 µM (inactive)	–	–	–	> 100 µM (inactive)
COC(=O)C(C(=O)C(=O)Nc1ccccc1C)c1nc2ccc([N+](=O)[O-])cc2nc1O (configuration not stated)	> 100 µM (inactive)	> 100 µM (inactive)	> 100 µM (inactive)	> 100 µM (inactive)	> 100 µM (inactive)	> 100 µM (inactive)	> 100 µM (inactive)	> 100 µM (inactive)	> 100 µM (inactive)	> 100 µM (inactive)	> 100 µM (inactive)	> 100 µM (inactive)	> 100 µM (inactive)	> 100 µM (inactive)	> 100 µM (inactive)	> 100 µM (inactive)	–	–	–	> 100 µM (inactive)
CC(=O)OC[C@@H](COC(=O)/C=C/c1ccc(O)cc1)OC1OC(CO)C(O)C(O)C1O (some centres not stated)	> 100 µM (inactive)	> 100 µM (inactive)	> 100 µM (inactive)	> 100 µM (inactive)	> 100 µM (inactive)	> 100 µM (inactive)	> 100 µM (inactive)	> 100 µM (inactive)	> 100 µM (inactive)	> 100 µM (inactive)	> 75.5 µM (inactive)	> 100 µM (inactive)	> 100 µM (inactive)	> 100 µM (inactive)	> 100 µM (inactive)	> 100 µM (inactive)	–	–	–	> 100 µM (inactive)
O=C(NC(=O)c1ccccc1[N+](=O)[O-])Nc1ccc(Oc2ncc(Cl)cn2)c([N+](=O)[O-])c1	0.385 µM (active)	0.641 µM (active)	0.0456 µM (active)	0.126 µM (active)	0.217 µM (active)	2.93 µM (inactive)	0.0299 µM (active)	0.0644 µM (active)	0.875 µM (active)	1.78 µM (inactive)	0.327 µM (active)	0.127 µM (active)	2.02 µM (inactive)	0.0638 µM (active)	0.106 µM (active)	0.431 µM (active)	0.202 µM (active)	0.0214 µM (active)	0.305 µM (active)	0.573 µM (active)
